pIC50: −log10 of the molar value.
Experiments:
C57BL/6J mice = assay: Acute toxicity in C57BL/6J mice; conditions: mouse, in vivo, 1000 mg/kg
Method: (§1) Six-weeks old C57BL/6J male mice were purchased from Guangzhou Southern Medical University Experimental Animal Technology Development Co. The mice were administered intraperitoneally NP1192 (100, 500, 1000 mg/kg). The survival of mice was monitored for 14 days, consecutively.

[1] = Acute toxicity in C57BL/6J mice; conditions: male, mouse, in vivo, ip; C57BL/6J mice, intraperitoneal, 14 days survival
Method: as §1

SiHa cells = assay: SiHa cell viability IC50 (CCK-8); assay type: cell-based, human
Method: NAT10^± SiHa cells and SiHa cells treated with DMSO, Remodelin or NP1192 for 36 h were seeded into the wells of a 96-well microplate at identical densities of 2000 or 3000 cells per well. After the cells adhered to the well surface, 110 μL of a 1:10 mixture of CCK-8 reagent (Meilunbio, China) and RPMI 1640 medium was added to each well. The microplate was then incubated for another 2 h in the incubator, and the mixture was replaced with an equal volume of medium. A microplate reader (BioTek, US) was used to measure the absorption at a wavelength of 450 nm.

SMILES: N#Cc1ccc(-c2csc(N(CCCCCCC(=O)N3CCN(c4cccc5c4C(=O)N(C4CCC(=O)NC4=O)C5=O)CC3)N=C3CCCC3)n2)cc1 (stereo not shown) [NP1192]
- tolerability in acute toxicity test (C57BL/6J mice): well-tolerated
- LD50 at 14 days [1]: > 1000 mg/kg
- pIC50 (SiHa cells; Homo sapiens, parental SiHa cells, 36 h, read-out: IC50, inhibition of SiHa cell viability): 5.11
- IC50 lower than that of Remodelin (SiHa cells; SiHa cells): 26.8%
